What was measured:
[1] = target: T1, TA12105 (T. annulata cytoplasmic HSP90) (Theileria annulata, UniProt Q4UDU8); assay: biochemical
[2] = target: T1, TA12105 (T. annulata cytoplasmic HSP90); assay: intrinsic tryptophan fluorescence quenching (ATPase Km […]); assay type: binding

T1 sequence (Q4UDU8 whole entry): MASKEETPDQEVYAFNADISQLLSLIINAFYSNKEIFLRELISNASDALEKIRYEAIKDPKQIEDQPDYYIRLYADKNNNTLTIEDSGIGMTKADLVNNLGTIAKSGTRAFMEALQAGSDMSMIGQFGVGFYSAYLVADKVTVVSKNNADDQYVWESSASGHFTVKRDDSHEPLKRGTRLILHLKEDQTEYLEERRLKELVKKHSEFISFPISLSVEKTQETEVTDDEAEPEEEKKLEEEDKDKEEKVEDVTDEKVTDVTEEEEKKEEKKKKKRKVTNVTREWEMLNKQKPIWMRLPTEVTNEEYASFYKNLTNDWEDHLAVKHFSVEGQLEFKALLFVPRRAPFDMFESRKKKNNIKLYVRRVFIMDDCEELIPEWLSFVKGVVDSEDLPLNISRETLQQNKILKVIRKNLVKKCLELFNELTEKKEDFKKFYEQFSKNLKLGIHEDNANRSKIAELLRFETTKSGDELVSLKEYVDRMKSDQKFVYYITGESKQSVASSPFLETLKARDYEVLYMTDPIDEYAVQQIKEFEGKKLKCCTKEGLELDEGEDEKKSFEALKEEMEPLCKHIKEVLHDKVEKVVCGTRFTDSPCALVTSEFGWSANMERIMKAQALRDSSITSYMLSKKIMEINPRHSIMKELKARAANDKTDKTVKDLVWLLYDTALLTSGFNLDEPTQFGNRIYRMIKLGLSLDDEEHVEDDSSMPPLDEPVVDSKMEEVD

Structure (SMILES)	Kd [1] [µM]	Kd [2] [µM]
C=CCNC1=C2C[C@@H](C)C[C@H](OC)[C@H](O)[C@@H](C)/C=C(\C)[C@H](OC(N)=O)[C@@H](OC)/C=C\C=C(/C)C(=O)NC(=CC1=O)C2=O [17-AAG]	7.67	
Nc1ncnc2c1ncn2[C@@H]1O[C@H](COP(=O)(O)OP(=O)(O)OP(=O)(O)O)[C@@H](O)[C@H]1O [ATP]		179

— article PMC5333456, “Characterization of HSP90 isoforms in transformed bovine leukocytes infected with Theileria annulata” (Cellular Microbiology, 2016)
